Legend:
aerobically growing Mtb = details: aerobic growth
[1] = test system: Mtb in hypoxia-induced growth arrest; experiment: Bactericidal activity of HAB9 in hypoxic growth conditions (variation of the Wayne model)
Mtb = details: in vitro; cited from earlier work

Row | SMILES | bactericidal activity against aerobically growing Mtb (aerobically growing Mtb) | bactericidal activity in hypoxia-induced growth arrest ([1]; hypoxic, non-replicating Mtb) | anti-mycobacterial activity in limiting oxygen compared to aerobically grown cells ([1]; limiting oxygen versus aerobic) | activity against Mtb under nutrient starvation or progressive oxygen depletion (Mtb)
1 | COc1ccc(-c2cc(=O)c3c(O)cc(OC)cc3o2)cc1 [Compound 1, 5-hydroxy-7-methoxy-2-(4-methoxyphenyl)chromen-4-one] | substantially reduced viable cultures of Mtb | substantially reduced viable cultures of Mtb | enhanced | –
2 | NNC(=O)c1ccncc1 [isoniazid] | – | – | – | little or no activity

Reference: patent US20240207219A1, “Artemisia anti-bacterial compositions and methods of use for inhibition of cells of Mycobacterium species” (priority 2022, published 2024)
